Each compound was assayed against T1, hTLR9 (Homo sapiens, UniProt Q9NR96) (assay: hTLR9 antagonism (SEAP inhibition assay) in HEK-Blue-hTLR9 (HEK293) cells, ODN-2006 stimulated). Details: HEK-Blue hTLR9, 1 μM; SEAP, HEK-Blue-hTLR9 cells; read-out: hTLR9 inhibitory activity (% at 1 μM).
T1 construct: expressed in transfected cells; host or cells: HEK-Blue-hTLR9 cells (HEK293)
T1 sequence (Q9NR96 26-1032): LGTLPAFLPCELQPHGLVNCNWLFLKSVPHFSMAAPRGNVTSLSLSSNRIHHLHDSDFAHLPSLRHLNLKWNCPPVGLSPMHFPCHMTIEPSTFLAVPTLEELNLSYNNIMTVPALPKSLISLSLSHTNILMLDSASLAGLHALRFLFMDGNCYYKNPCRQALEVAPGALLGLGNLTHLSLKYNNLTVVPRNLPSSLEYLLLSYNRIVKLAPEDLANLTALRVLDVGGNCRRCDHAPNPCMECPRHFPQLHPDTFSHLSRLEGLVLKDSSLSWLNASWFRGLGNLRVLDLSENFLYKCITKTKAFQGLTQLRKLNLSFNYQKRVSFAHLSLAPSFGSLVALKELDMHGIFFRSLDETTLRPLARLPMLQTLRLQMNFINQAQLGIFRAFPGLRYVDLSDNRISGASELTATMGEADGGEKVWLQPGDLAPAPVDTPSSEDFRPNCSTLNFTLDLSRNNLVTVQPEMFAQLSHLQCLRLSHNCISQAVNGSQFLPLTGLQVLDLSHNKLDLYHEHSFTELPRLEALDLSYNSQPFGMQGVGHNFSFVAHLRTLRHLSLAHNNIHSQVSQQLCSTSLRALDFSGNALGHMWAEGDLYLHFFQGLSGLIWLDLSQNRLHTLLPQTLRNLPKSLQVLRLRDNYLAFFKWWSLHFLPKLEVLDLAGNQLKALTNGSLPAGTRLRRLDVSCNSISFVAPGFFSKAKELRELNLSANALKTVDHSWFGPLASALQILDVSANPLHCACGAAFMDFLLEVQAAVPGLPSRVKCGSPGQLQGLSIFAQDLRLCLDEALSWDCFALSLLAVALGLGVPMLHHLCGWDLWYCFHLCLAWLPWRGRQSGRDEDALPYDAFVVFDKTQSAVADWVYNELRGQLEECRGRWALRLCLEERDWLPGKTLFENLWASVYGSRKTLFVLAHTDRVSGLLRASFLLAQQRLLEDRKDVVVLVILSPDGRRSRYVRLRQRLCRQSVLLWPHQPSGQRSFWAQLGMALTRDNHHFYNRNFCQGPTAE
Type: cell-based
Method: hTLR9 Antagonism (SEAP Inhibition Assay) in HEK293 Cell Lines
The SEAP reporter gene in HEK-Blue™-hTLR9 cells is placed under the control of the IFN-b minimal promoter fused to five NF-kB and AP-1 binding sites. The stimulation with a TLR9 ligand (ODN-2006) activates NF-kB and AP-1 which induces the production of SEAP. Levels of SEAP are determined with QUANTI-Blue™ detection medium that turns purple/blue in the presence of alkaline phosphatase. Decrease in the levels of SEAP production as indicated by reduction in absorbance at 650 nm is directly co-related with the TLR9 inhibitory activity of the antagonist (NCE).
HEK-Blue™-hTLR9 cells were maintained in DMEM with 10% FBS, 1% Penicillin/Streptomycin/Amphotericin (complete growth medium) and 0.2% Normocin. For the assay, cells were dissociated by washing in 1×PBS and re-suspended in complete DMEM. Cells were seeded at a density of 20000 cells per well; (40 μl per well) in a 384 well assay plate.
5 μl of 10× antagonist (NCE) was added to the cells in triplicates for each concentration. The plate was incubated for half an hour at 37° C. with 5% CO2. 5 μl of agonist (ODN-2006) was added and the plate was incubated overnight for 18 hours at 37° C. with 5% CO2. 5 μl of supernatant was transferred to a 384 well reading plate and to this 45 μl of Quanti-Blue™ detection reagent was added. The plate was then incubated for an hour at 37° C. SEAP activity in the supernatant was indicated by change in the pink color of Quanti-Blue™ detection reagent to purple/blue and the absorbance was read at 650 nm in the end point mode.

inhibition at 1 µM	SMILES
100%	CC(C)N1CCN(c2ccc(-c3nccc4[nH]c(CN5CCOCC5)cc34)cc2)CC1 [Example A1, 4-[[4-[4-(4-isopropylpiperazin-1-yl)phenyl]-1H-pyrrolo[3,2-c]pyridin-2-yl]methyl]morpholine]
100%	CN1CCN(c2ccc(-c3nccc4[nH]c(CN5CCOCC5)cc34)cc2)CC1 [Example A2, 4-[[4-[4-(4-methylpiperazin-1-yl)phenyl]-1H-pyrrolo[3,2-c]pyridin-2-yl]methyl] morpholine]
100%	CCN1CCN(c2ccc(-c3nccc4[nH]c(CN5CCOCC5)cc34)cc2)CC1 [Example A3, 4-[[4-[4-(4-ethylpiperazin-1-yl)phenyl]-1H-pyrrolo[3,2-c]pyridin-2-yl]methyl] morpholine]
100%	Cc1cc2[nH]c(CN3CCOCC3)cc2c(-c2ccc(N3CCN(C(C)C)CC3)cc2)n1 [Example A4, 4-[[4-[4-[4-isopropylpiperazin-1-yl)phenyl]-6-methyl-1H-pyrrolo[3,2-c]pyridin-2-yl]methyl] morpholine]
100%	CCN1CCN(c2ccc(-c3nc(C)cc4[nH]c(CN5CCOCC5)cc34)cc2)CC1 [Example A5, 4-[[4-[4-(4-ethylpiperazin-1-yl)phenyl]-6-methyl-1H-pyrrolo[3,2-c]pyridin-2-yl]methyl] morpholine]
100%	CC(C)N1CCN(c2ccc(-c3nccc4c3cc(CN3CCOCC3)n4C)cc2)CC1 [Example A8, 4-[[4-[4-(4-isopropylpiperazin-1-yl)phenyl]-1-methyl-pyrrolo[3,2-c]pyridin-2-yl]methyl] morpholine]
100%	CN1CCN(c2ccc(-c3nccc4c3cc(CN3CCOCC3)n4C)cc2)CC1 [Example A9, 4-[[1-methyl-4-[4-(4-methylpiperazin-1-yl)phenyl]pyrrolo[3,2-c]pyridin-2-yl]methyl] morpholine]
100%	CC(C)N1CCN(c2ccc(-c3nccc4[nH]c(CN5CCC(O)CC5)cc34)cc2)CC1 [Example A12, 1-[[4-[4-(4-isopropylpiperazin-1-yl)phenyl]-1H-pyrrolo[3,2-c]pyridin-2-yl]methyl] piperidin-4-ol]
100%	CC(C)N1CCN(c2ccc(-c3nccc4[nH]c(CN5CCC6(CC5)CC(O)C6)cc34)cc2)CC1 [Example A13, 7-[[4-[4-(4-isopropylpiperazin-1-yl)phenyl]-1H-pyrrolo[3,2-c]pyridin-2-yl]methyl]-7-azaspiro[3.5] nonan-2-ol]
100%	CC(C)N1CCN(c2ccc(-c3nccc4[nH]c(CN5CC(F)C5)cc34)cc2)CC1 [Example A16, 2-[(3-fluoroazetidin-1-yl)methyl]-4-[4-(4-isopropylpiperazin-1-yl)phenyl]-1H-pyrrolo[3,2-c]pyridine]
100%	CC(C)N1CCN(c2ccc(-c3nccc4[nH]c(CN5CCCCC5)cc34)cc2)CC1 [Example A17, 4-[4-(4-isopropylpiperazin-1-yl)phenyl]-2-(1-piperidylmethyl)-1H-pyrrolo[3,2-c]pyridine]
95.1%	CC(C)N1CCN(c2ccc(-c3nccc4[nH]c(CN5CCC(F)CC5)cc34)cc2)CC1 [Example A24, 2-[(4-fluoro-1-piperidyl)methyl]-4-[4-(4-isopropylpiperazin-yl)phenyl]-1H-pyrrolo[3,2-c] pyridine]
95.2%	CN1CCN(c2ccc(-c3nccc4[nH]c(CN5CCC(F)CC5)cc34)cc2)CC1 [Example A25, 2-[(4-fluoro-1-piperidyl)methyl]-4-[4-(4-methylpiperazin-1-yl)phenyl] - 1H-pyrrolo[3,2-c]pyridine]
91%	Cc1cc2[nH]c(Cn3cccn3)cc2c(-c2ccc(N3CCN(C(C)C)CC3)cc2)n1 [Example A28, 4-[4-(4-isopropylpiperazin-1-yl)phenyl]-6-methyl-2-(pyrazol-1-ylmethyl)-1H-pyrrolo[3,2-c]pyridine]
100%	Cc1cc2[nH]c(CN3CCC4(CC3)CC(O)C4)cc2c(-c2ccc(N3CCN(C(C)C)CC3)cc2)n1 [Example A29, 7-[[4-[4-(4-isopropylpiperazin-1-yl)phenyl]-6-methyl-1H-pyrrolo[3,2-c]pyridin-2-yl]methyl]-7-azaspiro[3.5] nonan-2-ol]
96.7%	Cc1cc2[nH]c(CN3CCC4(CC3)CC(C)C4)cc2c(-c2ccc(N3CCN(C(C)C)CC3)cc2)n1 [Example A30, 4-[4-(4-isopropylpiperazin-1-yl)phenyl]-6-methyl-2-[(2-methyl-7-azaspiro[3.5]nonan-7-yl)methyl]-1H-pyrrolo[3,2-c]pyridine]
90.4%	CC(C)N1CCN(c2ccc(-c3nc(C4CC4)cc4[nH]c(CN5CCOCC5)cc34)cc2)CC1 [Example A33, 4-[[6-cyclopropyl-4-[4-(4-isopropylpiperazin-1-yl)phenyl]-1H-pyrrolo[3,2-c]pyridin-2-yl]methyl] morpholine]
82%	CN1CCN(c2ccc(-c3nc(C4CC4)cc4[nH]c(CN5CCOCC5)cc34)cc2)CC1 [Example A34, 4-[[6-cyclopropyl-4-[4-(4-methylpiperazin-1-yl)phenyl]-1H-pyrrolo[3,2-c]pyridin-2-yl]methyl] morpholine]
96.3%	Cc1cc2c(cc(CN3CCOCC3)n2C)c(-c2ccc(N3CCN(C(C)C)CC3)cc2)n1 [Example A35, 4-[[4-[4-(4-isopropylpiperazin-1-yl]phenyl]-1,6-dimethyl-pyrrolo[3,2-c]pyridin-2-yl]methyl] morpholine]
96.7%	Cc1nc(-c2ccc(N3CCN(C(C)C)CC3)cc2)c2cc(CN3CCOCC3)[nH]c2c1C [Example A36, 4-[[4-[4-(4-isopropylpiperazin-1-yl)phenyl]-6,7-dimethyl-1H-pyrrolo[3,2-c]pyridin-2-yl]methyl] morpholine]
100%	Cc1nc(-c2ccc(N3CCN(C)CC3)cc2)c2cc(CN3CCOCC3)[nH]c2c1C [Example A37, 4-[[6,7-dimethyl-4-[4-(4-methylpiperazin-1-yl)phenyl]-1H-pyrrolo[3,2-c]pyridin-2-yl]methyl] morpholine]
98.5%	CCN1CCN(c2ccc(-c3nc(C)c(C)c4[nH]c(CN5CCOCC5)cc34)cc2)CC1 [Example A38, 4-[[4-[4-(4-ethylpiperazin-1-yl)phenyl]-6,7-dimethyl-1H-pyrrolo[3,2-c]pyridin-2-yl]methyl] morpholine]
74.3%	Cc1nc(-c2ccc(N3CCN(C(C)C)CC3)cc2)c2cc(CN3CCCCC3)[nH]c2c1C [Example A39, 4-[4-(4-isopropylpiperazin-1-yl)phenyl]-6,7-dimethyl-2-(1-piperidylmethyl)-1H-pyrrolo[3,2-c]pyridine]
80%	Cc1nc(-c2ccc(N3CCN(C(C)C)CC3)cc2)c2cc(CN3CCCC3)[nH]c2c1C [Example A40, 4-[4-(4-isopropylpiperazin-1-yl)phenyl]-6,7-dimethyl 2-(pyrrolidin-1-ylmethyl)-1H-pyrrolo[3,2-c)pyridine]
96%	c1cc2[nH]c(CN3CCOCC3)cc2c(-c2ccc(N3CCNCC3)cc2)n1 [Example A42, 4-[[4-(4-(piperazin-1-yl)phenyl)-1H-pyrrolo[3,2-c]pyridin-2-yl]methyl] morpholine]
91%	c1cc2[nH]c(CN3CCOCC3)cc2c(-c2ccc(OC3CCNCC3)cc2)n1 [Example A49, 4-[[4-[4-(4-piperidyloxy)phenyl]-1H-pyrrolo[3,2-c]pyridin-2-yl]methyl]morpholine]
